pIC50: −log10 of the molar value.
Biological target: T1, recombinant human PAI-1 (Homo sapiens, UniProt P05121)
T1 construct: purchased Molecular Innovations, Inc
Assay: Test Example 2: human PAI-1 inhibitory activity (tPA fluorogenic substrate, pH 7.4 HEPES buffer)
Type: biochemical
Details: for inhibition at 3 µM / inhibition at 0.3 µM / inhibition at 1 µM: read-out: Inhibition Rate of PAI-1 Activity (%); for Inhibition Rate of PAI-1 Activity (%): human PAI-1
Protocol: 0.1 M HEPES, 0.1 M NaCl. 1 mM EDTA. 0.1% Polyethylene glycol 8,000 (Hampton Research Corporation),
2 mM Dimethyldecylphoshine oxide [Apo-10] (Fluka Corporation)

T1 sequence (P05121 24-402): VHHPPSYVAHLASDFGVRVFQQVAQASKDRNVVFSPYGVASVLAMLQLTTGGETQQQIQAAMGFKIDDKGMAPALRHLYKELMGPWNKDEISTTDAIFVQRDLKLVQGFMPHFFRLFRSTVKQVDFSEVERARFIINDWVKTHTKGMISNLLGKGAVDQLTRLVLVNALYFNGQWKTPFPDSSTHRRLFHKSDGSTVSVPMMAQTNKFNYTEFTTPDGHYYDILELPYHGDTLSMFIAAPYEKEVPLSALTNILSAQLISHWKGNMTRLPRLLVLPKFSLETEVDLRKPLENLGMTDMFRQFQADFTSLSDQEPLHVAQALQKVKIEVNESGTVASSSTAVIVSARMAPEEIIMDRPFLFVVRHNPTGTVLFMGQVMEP

SMILES: CCCCCCCCCOc1cc(-c2ccc(OC(F)(F)F)cc2)ccc1N(CCCCc1ccccc1)C(=O)C(=O)O [Compound 380]
- pIC50: > 7.00
- inhibition at 3 µM: > 99%

SMILES: O=C(O)C(=O)N(CCCCc1ccccc1)c1cc(-c2ccc(OC(F)(F)F)cc2)ccc1OCCCCC(F)(F)F [Compound 381]
- pIC50: 5.98
- inhibition at 3 µM: > 99%

SMILES: CCCCCOc1ccc(-c2ccc(OC(F)(F)F)cc2)cc1N(CCCCc1ccc(F)cc1)C(=O)C(=O)O [Compound 382]
- pIC50: 6.19

SMILES: O=C(O)C(=O)N(CCCCc1ccccc1)c1cc(-c2ccc(OC(F)(F)F)cc2)ccc1OCCC(F)(F)F [Compound 383]
- pIC50: 5.87

SMILES: CCCCCOc1ccc(-c2ccc(OC(F)(F)F)cc2)cc1N(CCCCc1ccc(Cl)cc1)C(=O)C(=O)O [Compound 384]
- pIC50: 6.29

SMILES: CCCCCCCCCCCCCCCOc1cc(-c2ccc(OC(F)(F)F)cc2)ccc1N(CCCCc1ccccc1)C(=O)C(=O)O [Compound 385]
- pIC50: > 7.00
- inhibition at 0.3 µM: > 99%
- inhibition at 1 µM: > 99%
- inhibition at 3 µM: > 99%

SMILES: CCCCCCCOc1cc(-c2ccc(OC(F)(F)F)cc2)ccc1N(CCCCc1ccccc1)C(=O)C(=O)O [Compound 386]
- pIC50: 6.33
- inhibition at 1 µM: > 99%
- inhibition at 3 µM: > 99%

SMILES: CCCCCCCCCOc1ccc(N(CCCCc2ccccc2)C(=O)C(=O)O)cc1-c1ccc(OC(F)(F)F)cc1 [Compound 387]
- pIC50: > 7.00
- inhibition at 0.3 µM: > 99%
- inhibition at 1 µM: > 99%
- inhibition at 3 µM: > 99%

SMILES: CCCCCCCCCOc1cc(N(Cc2ccc(C(C)(C)C)cc2)C(=O)C(=O)O)ccc1-c1ccc(OC(F)(F)F)cc1 [Compound 388]
- pIC50: > 7.00
- inhibition at 0.3 µM: > 99%
- inhibition at 1 µM: > 99%
- inhibition at 3 µM: > 99%

SMILES: CCCCCCCCCOc1cc(N(CCCCc2ccccc2)C(=O)C(=O)O)ccc1-c1ccc(OC(F)(F)F)cc1 [Compound 389]
- pIC50: > 7.00
- inhibition at 1 µM: > 99%
- inhibition at 3 µM: > 99%

SMILES: CCCCCOc1ccc(-c2ccc(C(F)(F)F)cc2)cc1N(CCCCc1ccccc1)C(=O)C(=O)O [Compound 390]
- pIC50: 6.19

SMILES: CCCCCOc1ccc(-c2cccc(OC(F)(F)F)c2)cc1N(CCCCc1ccccc1)C(=O)C(=O)O [Compound 391]
- pIC50: 6.11

SMILES: CCCCCOc1cc(-c2ccc(C(F)(F)F)cc2)ccc1N(CCCCc1ccccc1)C(=O)C(=O)O [Compound 392]
- pIC50: 6.15
- inhibition at 3 µM: > 99%

SMILES: CCCCCOc1cc(-c2cccc(OC(F)(F)F)c2)ccc1N(CCCCc1ccccc1)C(=O)C(=O)O [Compound 393]
- pIC50: 6.16

SMILES: CCCCCCCOc1ccc(N(CCCCc2ccccc2)C(=O)C(=O)O)cc1-c1ccc(OC(F)(F)F)cc1 [Compound 394]
- pIC50: 6.66
- inhibition at 3 µM: > 99%

SMILES: O=C(O)c1cc(-c2ccc(OC(F)(F)F)cc2)ccc1OCc1ccccc1 [Compound 401]
- Inhibition Rate of PAI-1 Activity (%) (compound concentration 3 μM): 15%
- Inhibition Rate of PAI-1 Activity (%) (compound concentration 10 μM): 17%
- Inhibition Rate of PAI-1 Activity (%) (compound concentration 25 μM): 53%

SMILES: CCCCOc1ccc(-c2ccc(OC(F)(F)F)cc2)cc1/C=C/C(=O)O [Compound 405]
- Inhibition Rate of PAI-1 Activity (%) (compound concentration 1 μM): 14%
- Inhibition Rate of PAI-1 Activity (%) (compound concentration 3 μM): 63%
- Inhibition Rate of PAI-1 Activity (%) (compound concentration 10 μM): >99%
- Inhibition Rate of PAI-1 Activity (%) (compound concentration 25 μM): 95%

SMILES: CCCCOc1ccc(-c2ccc(OC(F)(F)F)cc2)cc1CCC(=O)O [Compound 407]
- Inhibition Rate of PAI-1 Activity (%) (compound concentration 1 μM): 14%
- Inhibition Rate of PAI-1 Activity (%) (compound concentration 3 μM): 41%
- Inhibition Rate of PAI-1 Activity (%) (compound concentration 10 μM): >99%
- Inhibition Rate of PAI-1 Activity (%) (compound concentration 25 μM): 98%

SMILES: CC(C)(C)c1ccc(COc2ccc(NS(=O)(=O)c3ccc(OC(F)(F)F)cc3)cc2CCC(=O)O)cc1 [Compound 415]
- Inhibition Rate of PAI-1 Activity (%) (compound concentration 1 μM): 41%
- Inhibition Rate of PAI-1 Activity (%) (compound concentration 3 μM): 98%
- Inhibition Rate of PAI-1 Activity (%) (compound concentration 10 μM): >99%
- Inhibition Rate of PAI-1 Activity (%) (compound concentration 25 μM): >99%

SMILES: CN(C(=O)c1ccc(OC(F)(F)F)cc1)c1ccc(OCc2ccc(C(C)(C)C)cc2)c(CCC(=O)O)c1 [Compound 416]
- Inhibition Rate of PAI-1 Activity (%) (compound concentration 1 μM): 26%
- Inhibition Rate of PAI-1 Activity (%) (compound concentration 3 μM): 54%
- Inhibition Rate of PAI-1 Activity (%) (compound concentration 10 μM): >99%
- Inhibition Rate of PAI-1 Activity (%) (compound concentration 25 μM): >99%
